From PubChem BioAssay (NCI)
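Interpolation was linear, between the two tested concentrations surrounding the appropriate level; five concentrations were tested over 48 hours in 96-well plates. The concentration for full growth arrest is given as TGI.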

Assays:
Assay in all cases: growth of human tumour cells (NCI), 48 h
[1] = system: SK-MEL-28 melanoma
[2] = system: SK-MEL-2 melanoma
[3] = system: NCI-H460 lung
[4] = system: SW-620 colon
[5] = system: SN12C renal
[6] = system: HL-60(TB) leukemia
[7] = system: SK-MEL-5 melanoma
[8] = system: SF-295 CNS
[9] = system: NCI/ADR-RES ovarian
[10] = system: HOP-62 NSCLC
[11] = system: 786-0 renal
[12] = system: SNB-19 CNS
[13] = system: RXF 393 renal
[14] = system: CAKI-1 renal
[15] = system: HS 578T breast
[16] = system: NCI-H23 lung
[17] = system: K-562 leukemia
[18] = system: SF-268 CNS
[19] = system: OVCAR-5 ovarian
[20] = system: HCT-116 colon
[21] = system: M14 melanoma
[22] = system: MALME-3M melanoma
[23] = system: KM12 colon
[24] = system: MOLT-4 leukemia
[25] = system: SK-OV-3 ovarian
[26] = system: MDA-N
[27] = system: EKVX NSCLC
[28] = system: RPMI-8226 leukemia
[29] = system: U251 CNS
[30] = system: MDA-MB-231 breast
[31] = system: A498 renal
[32] = system: CCRF-CEM leukemia
[33] = system: A549 NSCLC
[34] = system: DU-145 prostate
[35] = system: TK-10 renal
[36] = system: OVCAR-4 ovarian
[37] = system: IGROV1 ovarian
[38] = system: OVCAR-3 ovarian
[39] = system: ACHN renal
[40] = system: SR leukemia
[41] = system: HOP-92 NSCLC
[42] = system: HCT-15 colon
[43] = system: NCI-H522 lung
[44] = system: HT29 colon
[45] = system: PC-3 prostate
[46] = system: NCI-H226 lung
[47] = system: UACC-257 melanoma
[48] = system: SF-539 CNS
[49] = system: MCF7 breast
[50] = system: MDA-MB-435
[51] = system: COLO 205 colon
[52] = system: BT-549 breast
[53] = system: OVCAR-8 ovarian
[54] = system: LOX IMVI melanoma

Measured: TGI

CN(C)CCCNC(=S)S
> 100 µM: all assays above
